This note sets out measurements from patent US20110142866A1, “PEPTIDE ANALOGUES AND CONJUGATES THEREOF” (Eldrug S.A., priority 2007, published 2011).

“And” between values parts separate entries of the source, which are not always exact repeats. Equal entries are not always repeated. “Also recorded” adds a separate entry of the source.

Experiment [1] deals with native bovine MBP protein. The experiment in a line: ELISA cross reaction of sera with native MBP protein. It counts as in vivo. Further details: key to Cross reaction with native MBP / Ab Cross reaction with native MBP: −: negative; +/−: very weak; +: weak; ++: moderate; +++: strong. As to conditions: for Cross reaction with native MBP: Table 2, peptide analogues conjugated to reduced mannan-KLH; for Ab Cross reaction with native MBP: Table 3, peptide analogues emulsified in complete Freund's adjuvant; for cross reaction of sera with native MBP protein (in words): peptide conjugated to reduced mannan, 1/200 and 1/1,600 sera dilution. The method, then:
Blood was collected and sera isolated from mice prior to and 2 weeks after immunization. MBP83-99 peptides conjugated to BSA were coated onto polyvinyl chloride (PVC) microtiter plates at 10 μg/ml or with 2.5 μg/ml native MBP bovine protein in 0.2 M NaHCO3 buffer, pH 9.6, overnight at 4′C and non-specific binding was blocked with 2% BSA for 1.0 hour at room temperature. After washing (0.05% Tween 20/PBS), serial dilutions of sera were added and incubated for a further 2.0 hours at room temperature. The plates were washed and bound antibody was detected using HRP-conjugated sheep anti-mouse antibody (1:1000 in PBS) (Amersham, UK) and developed using 2,2″-azino-di(3-ethylbenzthiazoline) sulphonate (ABTS) (Sigma, UK). Absorption at 405 nm was recorded using an ELISA microplate reader.
(In general: An ELISA detects its analyte on a solid surface through an enzyme-linked reagent.)

The subject of experiment [2] is respective peptides conjugated to BSA or KLH. The experiment in a line: ELISA total IgG antibody responses to the respective peptide. It counts as in vivo, SJL/J mice. Also on record: key to Antibody: −: negative; +/−: very weak; +: weak; ++: moderate; +++: strong. How it is done: Blood was collected and sera isolated from mice prior to and 4 weeks after immunization with CFA or 14 days after the last immunization with reduced mannan conjugates. MBP87-99 or [A^91, A^96]MBP87-99 peptides conjugated to BSA or KLH were coated onto polyvinyl chloride (PVC) microtiter plates at 10 μg/ml in 0.2 M NaHCO3 buffer, pH 9.6, 0/N at 4° C. Non-specific binding was blocked with 2% BSA for 1.0 h at RT. After washing (0.05 Tween 20/PBS), serial dilutions of sera were added and incubated for a further 2 h at RT. The plates were washed and bound antibody was detected using HRP-conjugated sheep anti-mouse antibody (1/1000 dilution in PBS) (Amersham, UK) and developed using 2,2′-azino-di(3-ethylbenzthiazoline)6-sulfonic acid (ABTS) (Sigma, UK). Absorbance at 405 nm was recorded using a Fluostar Optima microplate reader (BMG labtech, Offenburg, Germany).
ELISpot assays for IFN-γ and IL-4 secretion by T cells and ELISA assays for binding of sera to native MBP protein or peptide were carried out as previously described^3, 4, 20, 21. Mean values were compared using the Student's two-tailed t-test. P value threshold of p<0.01 indicates a statistically significant difference.

Experiment [3] deals with IFN-γ production induced by the native MBP83-99 peptide. Nature of the experiment: In vitro IFN-γ antagonism ELISpot. The format is cell-based, SJL/J mice. Further details: key to Antagonism: −: negative; +/−: very weak; +: weak; ++: moderate; +++: strong. Particulars: for Antagonism: Table 3, complete Freund's adjuvant. The method, then: Mice were immunized with native MBP83-99 peptide emulsified in CFA, and spleen cells were isolated 25 days later. The ability of cyclic mutant MBP83-99 peptide analogues to antagonize IFN-γ production was assessed by ELISpot analysis. The native MBP83-99 peptide was added together with cyclic mutated MBP83-99 analogues, and % IFN-γ inhibition is shown.
ELISpot assays are an ex vivo 18 h assay that measures IFN-γ secretion by T cells. […] The sensitivity of the assay is higher than limiting dilution analysis, FACscan analysis, or ELISA methods and can reliably detect precursor frequencies of antigen specific effectors of 1 in every 0.5 million cells. It is therefore an appropriate method to detect antigen specific cells. Here, we measured IFN-γ production generated by the native MBP83-99 peptide and assessed the % inhibition (antagonize) of IFN-γ produced in the presence of mutant peptide analogues.
Cyclic head-to-tail MBP83-99 single and double mutant analogues were tested for their ability to inhibit IFN-γ responses induced by the native agonist MBP83-99 peptide. Mice were immunized with the native agonist MBP83-99 peptide emulsified in complete Freund's adjuvant (CFA). Spleen cells were isolated 25 days later, and the ability of cyclic peptides to inhibit (antagonize) IFN-γ production was assessed in in vitro antagonism ELISpot assays (FIG. 8). The results are shown as % IFN-γ inhibition of each cyclic mutant peptide analogue, in comparison to the native MBP83-99 peptide alone. All cyclic peptide analogues inhibited IFN-γ production between 30% and 90%. […] However, the single mutant analogue cyclo(83-99)[A^91]MBP83-99 was the most efficient in inhibiting IFN-γ production induced by the native MBP83-99 peptide, up to 92%. On the basis of the ability of cyclo(83-99)[A^91]MBP83-99 peptide to inhibit (antagonize) IFN-γ production by T cells, we chose to examine its in vivo efficacy in SJL/J mice after emulsification in CFA or conjugation to reduced mannan.

Setting [4] is: Table 2, peptide analogues conjugated to reduced mannan-KLH.
The mark [5] stands for this setting: Table 3, peptide analogues emulsified in complete Freund's adjuvant.
[6] abbreviates: peptide conjugated to reduced mannan.

On to “E N P V V H F F E N I V T P R T P (ENPVVHFFENIVTPRTP) [[E^91]MBP83-99]”, for which, in experiment [1], the “Cross reaction with native MBP” value is “+”, the “Ab Cross reaction with native MBP” value is given as “−” and the “cross reaction of sera with native MBP protein (in words)” value (shortened to “cross reaction of sera”) was “reacted moderately; also recorded: cross reacted weakly”. Further, the Antibody result in experiment [2] (setting [4]) was “+++”. For the same compound, in experiment [2] (setting [5]), the Antibody entry is on record as “++”. Besides, the “subclass of the antibodies induced” value in experiment [2] (setting [6]) is listed as “IgG1”. Also, the Antagonism result in experiment [3] is “++”.
In the case of “cyclo(83-99)E N P V V H F F A N I V T P R T P (ENPVVHFFANIVTPRTP; cyclised or stapled) [cyclo(83-99)[A^91]MBP83-99]”, in experiment [1], the “Cross reaction with native MBP” value is reported as “+”, the “Ab Cross reaction with native MBP” value is “−” and the “cross reaction of sera” value is reported as “reacted moderately”. Further, in experiment [2] (setting [4]), the Antibody result is “+/−”. In addition, the Antibody entry in experiment [2] (setting [5]) is on record as “+”. Besides, in experiment [2] (setting [6]), the “total IgG antibody titer” value was 1/800 and 1/1600. The “IgG antibody responses (in words)” value in experiment [2] (peptide emulsified in CFA) is reported as “enhanced”. For the same compound, the Antagonism result in experiment [3] was “++”. In experiment [3] (spleen cells of mice immunized with native MBP83-99 in CFA, 25 days, cyclic analogue added together with native MBP83-99), the “% IFN-γ inhibition” value is recorded as “up to 92%”.
In the case of “E N P V V H F F A N I V T P R T P (ENPVVHFFANIVTPRTP) [[A^91]MBP83-99]”, in experiment [1], the “Cross reaction with native MBP” value was “+”, the “Ab Cross reaction with native MBP” value was “++” and the “cross reaction of sera” value is “reacted moderately; also recorded: cross reacted weakly”. Also, the Antibody result in experiment [2] (setting [4]) is recorded as “+”. Besides, in experiment [2] (setting [5]), the Antibody entry is reported as “++”. In experiment [2] (setting [6]), the “subclass of the antibodies induced” value is on record as “IgG1” and the “total IgG antibody titer” value is 1/640. Besides, the “IgG antibody responses (in words)” value in experiment [2] (peptide emulsified in CFA) is “able to induce IgG antibody responses”. Further, the Antagonism entry in experiment [3] is “++”.
With “E N P V V H F F R N I V T A R T P (ENPVVHFFRNIVTARTP) [[R^91, A^96]MBP83-99]”, in experiment [1], the “Cross reaction with native MBP” value is on record as “+++”, the “Ab Cross reaction with native MBP” value is reported as “−” and the “cross reaction of sera” value is on record as “cross reactive”. Also, in experiment [1] (listed as [A^91, R^96]MBP83-99), the “cross reaction of sera” value was “highly cross reacted”. For the same compound, the Antibody result in experiment [2] (setting [4]) is recorded as “+++”. The Antibody entry in experiment [2] (setting [5]) was “++”. The “subclass of the antibodies induced” value in experiment [2] (setting [6]) is “IgG1”. Also, the Antagonism entry in experiment [3] is listed as “++”.
With “E N P V V H F F K N I V T P R T P (ENPVVHFFKNIVTPRTP) [MBP83-99, reference compound]”, in experiment [1], the “Cross reaction with native MBP” value is listed as “+++”, the “Ab Cross reaction with native MBP” value is “−” and the “cross reaction of sera” value was “highly cross reacted; also recorded: cross reactive”. In addition, in experiment [2] (setting [4]), the Antibody entry is “+++”. Further, the Antibody result in experiment [2] (setting [5]) is “−”. Also, the “IgG antibody responses (in words)” value in experiment [2] (peptide emulsified in CFA) is “did not generate IgG antibodies”.
On to “E N P V V H F F Y N I V T P R T P (ENPVVHFFYNIVTPRTP) [[Y^91]MBP83-99]”, for which, in experiment [1], the “Cross reaction with native MBP” value was “−”, the “Ab Cross reaction with native MBP” value was “−” and the “cross reaction of sera” value is “did not cross react”. Besides, the Antibody result in experiment [2] (setting [4]) is “+++”. For the same compound, the Antibody result in experiment [2] (setting [5]) is on record as “−”. Moreover, the “subclass of the antibodies induced” value in experiment [2] (setting [6]) is recorded as “IgG1”. Further, in experiment [3], the Antagonism result is reported as “++”.
As to `CC[C@H](C)[C@@H]1NC(=O)[C@H](CC(N)=O)NC(=O)[C@H](CCCCN)NC(=O)[C@H](Cc2ccccc2)NC(=O)[C@H](Cc2ccccc2)NC(=O)[C@H](Cc2c[nH]cn2)NC(=O)[C@H](C(C)C)NC(=O)[C@H](C(C)C)NC(=O)[C@@H]2CCCN2C(=O)[C@H](CC(N)=O)NC(=O)[C@H](CCC(=O)O)NC(=O)[C@@H]2CCCN2C(=O)[C@H]([C@@H](C)O)NC(=O)[C@H](CCCNC(=N)N)NC(=O)[C@@H]2CCCN2C(=O)[C@H]([C@@H](C)O)NC(=O)[C@H](C(C)C)NC1=O` [cyclo(83-99)MBP83-99, cyclo(83-99)E N P V V H F F K N I V T P R T P], in experiment [1], the “Ab Cross reaction with native MBP” value is listed as “−” and the “cross reaction of sera” value is “highly cross reacted”. For the same compound, the “IgG antibody responses (in words)” value in experiment [2] (peptide emulsified in CFA) is on record as “antibodies were generated”.
For the compound “E N P V V H F F F N I V T P R T P (ENPVVHFFFNIVTPRTP) [[F^91]MBP83-99]”, in experiment [1], the “Cross reaction with native MBP” value is reported as “−”, the “Ab Cross reaction with native MBP” value is reported as “−” and the “cross reaction of sera” value is recorded as “did not react”. In experiment [2] (setting [4]), the Antibody result was “+/−”. Moreover, in experiment [2] (setting [5]), the Antibody entry is recorded as “++”. In experiment [2] (setting [6]), the “IgG antibody responses (in words)” value is reported as “weak” and the “total IgG antibody titer” value is 1/800. Besides, the Antagonism result in experiment [3] is “++”.
